Tests used:
[1] = Antiproliferative activity against P-gp overexpressing human KBVIN cells assessed as reduction in cell viability after 72 hrs by SRB assay; assay type: functional
MDA-MB-231 = assay: Antiproliferative activity against triple-negative human MDA-MB-231 cells assessed as reduction in cell viability after 72 hrs by SRB assay; assay type: functional, cell-based; conditions: MDA-MB-231, 72 h
A549 = assay: Antiproliferative activity against human A549 cells assessed as reduction in cell viability after 72 hrs by SRB assay; assay type: functional, cell-based; conditions: A549, 72 h
KB = assay: Antiproliferative activity against human KB cells assessed as reduction in cell viability after 72 hrs by SRB assay; assay type: functional, cell-based

Structure (SMILES) | IC50 (MDA-MB-231) [µM] | IC50 (A549) [µM] | IC50 (KB) [µM] | IC50 [1] [µM]
CC(=O)O[C@H]1C(=O)[C@@]2(C)[C@H]([C@H](OC(=O)c3ccccc3)[C@]3(O)C[C@H](OC(=O)[C@H](O)[C@@H](NC(=O)c4ccccc4)c4ccccc4)C(C)=C1C3(C)C)[C@]1(OC(C)=O)CO[C@@H]1C[C@@H]2O [PACLITAXEL] | 0.0107 | 0.0063 | 0.0074 | 4.53
COc1c(CC=C(C)C)c(O)c(C(CC(C)C)c2c(O)c(C(C)=O)c(O)c3c2OC(C)(C)C(O)C3)c(O)c1C(C)=O (racemic) | > 10 | > 10 | > 10 | > 10
COc1c(CC=C(C)C)c(O)c(Cc2c(O)cc(O)c(C(C)=O)c2O)c(O)c1C(C)=O | 6.9 | 5.6 | 5.2 | 5.1
COc1c(CC=C(C)C)c(O)c(C(CC(C)C)c2c(O)c3c(c(C(C)=O)c2O)OC(C)(C)C=C3)c(O)c1C(C)=O (racemic) | 5.4 | 5.9 | 4.9 | 4.3
COc1c(CC=C(C)C)c(O)c(C(CC(C)C)c2c(O)c3c(c(C(C)=O)c2O)OC(C)(C)C(O)C3)c(O)c1C(C)=O (racemic) | > 10 | > 10 | > 10 | > 10
COc1c(CC=C(C)C)c(O)c(C(CC(C)C)c2c(O)c3c(c(C(C)=O)c2O)OC(C(C)(C)O)C3)c(O)c1C(C)=O (racemic) | > 10 | > 10 | > 10 | > 10

Continued, in another order:

IC50 (MDA-MB-231) [µM] | IC50 (A549) [µM] | IC50 (KB) [µM] | Structure (SMILES) | IC50 [1] [µM]
5.9 | 6.4 | 5.5 | COc1c(CC=C(C)C)c(O)c(Cc2c(O)c(CC=C(C)C)c(OC)c(C(C)=O)c2O)c(O)c1C(C)=O | 5.5
> 10 | > 10 | 7.6 | COc1c(CC=C(C)C)c(O)c(C(CC(C)C)c2c(O)c(CC=C(C)C)c(OC)c(C(C)=O)c2O)c(O)c1C(C)=O | 8.4
> 10 | > 10 | > 10 | COc1c(CC=C(C)C)c(O)c(C(CC(C)C)c2c(O)c(C=O)c(O)c(C(C)=O)c2O)c(O)c1C(C)=O (racemic) | > 10
6.4 | 6.1 | 4.9 | COc1c(CC=C(C)C)c(O)c(C(CC(C)C)c2c(O)c(CC=C(C)C)c(O)c(C(C)=O)c2O)c(O)c1C(C)=O (racemic) | 4.4
10 | > 10 | 6 | C=C(C)C(O)Cc1c(O)c(C(C)=O)c(O)c(C(CC(C)C)c2c(O)c(CC=C(C)C)c(OC)c(C(C)=O)c2O)c1O (racemic) [ACROVESTENOL] | 6.5
5.8 | 4.9 | 5.2 | COc1c(CC=C(C)C)c(O)c(C(CC(C)C)c2c(O)cc(O)c(C(C)=O)c2O)c(O)c1C(C)=O (stereo not drawn) | 5

From ChEMBL document CHEMBL4414593, “Prenylated Acetophloroglucinol Dimers from Acronychia trifoliolata: Structure Elucidation and Total Synthesis” (J Nat Prod, 2019)
